Experimental findings from US20110190215A1, “THERAPEUTIC USE OF PEPTIDES” (priority 2008, published 2011) are described below.

One test concerns leptin. Kind of test: Proteomic microarray (antibody membrane, chemiluminescence): leptin protein expression in TR146 cells. The test is classed as cell-based. The conditions noted are these: TR146 buccal mucosal cells, 2.0 μM peptide, 24 hours, vs mock-treated. The procedure:
(§1) TR146 buccal mucosal cells, obtained from Cancer Research U.K., were propagated in Dulbecco's modified Eagle medium (DMEM) high glucose (Gibco). The culture medium supplemented with 3.7 mg/ml NaHCO3, 10% FCS, 50 units/ml penicillin G, and […] streptomycin sulphate. Cells were passaged when 90% confluence was reached. The medium was discarded, and cells were washed twice with sterile DPBS (without calcium and magnesium, Cellgro) and 0.25% trypsin-EDTA solution (Gibco) was added. The flask was placed at 37° C. for 10 minutes and then detached cells were suspended in growth medium and seeded in new flasks (dishes micro-well plates).
For proteomic microarray analysis, cells at 75-80% confluence in T75 flasks were treated with equimolar (2.0 μM) concentrations of a peptide consisting of the sequence FVAPFPEVFGKEKV (SEQ ID NO 2), […] (SEQ ID NO 3), GPVRGPFPI (SEQ ID NO 4), EPVLGPVRGPFPI (SEQ ID NO 5), VPYPQRDMPIQ (SEQ ID NO 6), […] (SEQ ID NO 7), EPVLGPVR (SEQ ID NO 8) and […] (SEQ ID NO 1). Mock-treated cells received same volume of solvent. After 24 hours the cells were washed twice with DPBS, trypsinized, suspended in 5 ml growth media and centrifuged (800 g for 10 minutes). Cells were resuspended in 5 ml DPBS and centrifuged again.
Antibodies specific to leptin were immobilised on the surface of a membrane. Sample extracts of cell samples each treated with peptides of amino acid sequences SEQ ID NO 1, 2, 3, 4, 5, 6, 7 and 8 were incubated with the membranes. Biotinylated antibodies, specific to leptin-antibody complexes, were then incubated with the membranes. Bound leptin was quantified by measuring chemiluminescence.

Test [1] deals with glutamate decarboxylase 2 (pancreatic islets, lung and brain, 65 kDa). Description: Microarray gene expression in peptide-treated TR146 cells: glutamate decarboxylase 2 (65 kDa). Conditions: TR146 buccal mucosal cells, 2.0 μM peptide, 6 hours, vs mock-treated, Affymetrix Human Genome Focus Array. The test is classed as cell-based. Here is the method:
as §1
(§2) For microarray analysis, cells at 75-80% confluence in T75 flasks were treated with equimolar (2.0 μM) concentrations of peptide of SEQ ID NO 5. Mock-treated cells received same volume of solvent. After 6 hours the cells were washed twice with DPBS, trypsinized, suspended in 5 ml growth media and centrifuged (800 g for 10 minutes). Cells were resuspended in 5 ml DPBS and centrifuged again. […]
(§3) RNA isolation for Microarray Procedure Total RNAs were isolated with an Ambion RNAqueous Kit, and cDNAs were synthesized and purified for Affymetrix GeneChip® Human Genome Focus Array analysis. Raw data were analyzed by the Affymetrix NetAFFX Analysis Center online tools.
(§4) The nature of change of gene expression profile in response to the peptide was determined. […]

Test [2] concerns beta 2 gamma-aminobutyric acid receptor, theta. Description: Microarray gene expression in peptide-treated TR146 cells: beta 2 GABA receptor, theta. Conditions: TR146 buccal mucosal cells, 2.0 μM peptide, 6 hours, vs mock-treated, Affymetrix Human Genome Focus Array. The test is classed as cell-based. The procedure: as §1, §2, §3, §4
Test [3] relates to gamma-aminobutyric acid A receptor (GABAAR). Kind of test: Microarray gene expression in peptide-treated TR146 cells: GABA A receptor. Format: cell-based. Conditions: TR146 buccal mucosal cells, 2.0 μM peptide, 6 hours, vs mock-treated, Affymetrix Human Genome Focus Array. Here is the method: as §1, §2, §3, §4
Another test deals with rho 2. Kind of test: Microarray gene expression in peptide-treated TR146 cells: rho 2. The test is classed as cell-based. Conditions: TR146 buccal mucosal cells, 2.0 μM peptide, 6 hours, vs mock-treated, Affymetrix Human Genome Focus Array. The procedure:
as §1, §2, §3, §4

The subject of test [4] is Renin (angiotensinogenase). Description: Microarray gene expression in peptide-treated TR146 cells: renin. Format: cell-based. The conditions noted are these: TR146 buccal mucosal cells, 2.0 μM peptide, 6 hours, vs mock-treated, Affymetrix Human Genome Focus Array. The procedure: as §1
(§5) For microarray analysis, cells at 75-80% confluence in T75 flasks were treated with equimolar (2.0 μM) concentrations of peptides. Mock-treated cells received same volume of solvent. After 6 hours the cells were washed twice with DPBS, trypsinized, suspended in 5 ml growth media and centrifuged (800 g for 10 minutes). Cells were resuspended in 5 ml DPBS and centrifuged again. Cell pellets were used for RNA isolation.
(§6) Total RNAs were isolated with an Ambion RNAqueous Kit, and cDNAs were synthesized and purified for Affymetrix GeneChip® Human Genome Focus Array analysis. Raw data were analyzed by the Affymetrix NetAFFX Analysis Center online tools.
as §4

In the next test the test system is Resistin. Kind of test: Microarray gene expression in peptide-treated TR146 cells: resistin. Conditions: TR146 buccal mucosal cells, 2.0 μM peptide, 6 hours, vs mock-treated, Affymetrix Human Genome Focus Array. The test is classed as cell-based. Here is the method: as §1, §5, §6, §4
A short description of test [5]: Body weight of mice on high-fat diet (HFD) co-administered peptides. Format: in vivo. The conditions noted are these: for body weight gain compared to control fed with HFD alone: peptide co-administered with HFD for 10 months; for body weight: peptide co-administered with high-fat diet (HFD) for 10 months, HFD control 54.7 g, regular diet 29.8 g.
The subject of another test is Stathmin-1. Kind of test: Microarray gene expression in peptide-treated TR146 cells: Stathmin-1. The test is classed as cell-based. Conditions: TR146 buccal mucosal cells, 2.0 μM peptide, 6 hours, vs mock-treated, Affymetrix Human Genome Focus Array. The procedure:
as §1
(§7) For microarray analysis, cells at 75-80% confluence in T75 flasks were treated with equimolar (2.0 μM) concentrations of a peptide consisting of the sequence RMPLPPRGCPAAAPWS (SEQ ID NO 10) or […] (SEQ ID NO 1). Mock-treated cells received same volume of solvent. […]
as §6
(§8) The nature of change of gene expression profile in response to each of the peptides consisting of the sequence RMPLPPRGCPAAAPWS (SEQ ID NO 10) or […] (SEQ ID NO 1) was determined. […]

In test [6] the test system is Amyloid Beta (A4) Precursor Protein (APP). Description: Microarray gene expression in peptide-treated TR146 cells: APP. Format: cell-based. The conditions noted are these: TR146 buccal mucosal cells, 2.0 μM peptide, 6 hours, vs mock-treated, Affymetrix Human Genome Focus Array. The procedure: as §1, §7, §6, §8
In test [7] the test system is protein-tyrosine phosphatase, receptor-type, F. Description: Microarray gene expression in peptide-treated TR146 cells: protein-tyrosine phosphatase, receptor-type, F. The conditions noted are these: TR146 buccal mucosal cells, 2.0 μM peptide, 6 hours, vs mock-treated, Affymetrix Human Genome Focus Array. Format: cell-based. The procedure:
as §1, §7, §6, §8

For test [8], the system named is glutamate receptor, metabotropic 8. Description: Microarray gene expression in peptide-treated TR146 cells: metabotropic glutamate receptor 8. The conditions noted are these: TR146 buccal mucosal cells, 2.0 μM peptide, 6 hours, vs mock-treated, Affymetrix Human Genome Focus Array. Format: cell-based. Here is the method: as §1
(§9) For microarray analysis, cells at 75-80% confluence in T75 flasks were treated with equimolar (2.0 μM) concentrations of a peptide consisting of the sequence […] (SEQ ID NO 1). […]
as §6
(§10) The nature of change of gene expression profile in response to the peptide consisting of the sequence […] (SEQ ID NO 1) was determined. […]
as §8

Test [9] relates to Apolipoprotein E (APOE) and receptors. Description: Microarray gene expression in peptide-treated TR146 cells: APOE and receptors. Format: cell-based. Conditions: TR146 buccal mucosal cells, 2.0 μM peptide, 6 hours, vs mock-treated, Affymetrix Human Genome Focus Array. Here is the method: as §1, §9, §6, §10, §8
Test [10] deals with brain glutamate decarboxylase 2. Kind of test: Microarray gene expression in peptide-treated TR146 cells: brain glutamate decarboxylase 2. The conditions noted are these: TR146 buccal mucosal cells, 2.0 μM peptide, 6 hours, vs mock-treated, Affymetrix Human Genome Focus Array. The test is classed as cell-based. The procedure: as §1, §9, §6, §10, §8
Test [11] has as its system glutamate receptor, metabotropic 7. Description: Microarray gene expression in peptide-treated TR146 cells: metabotropic glutamate receptor 7. Format: cell-based. Conditions: TR146 buccal mucosal cells, 2.0 μM peptide, 6 hours, vs mock-treated, Affymetrix Human Genome Focus Array. The procedure:
as §1, §9, §6, §10, §8

The subject of test [12] is TR146 buccal mucosal cells. Description: Microarray gene expression profile of peptide-treated TR146 cells (number of genes altered). Format: cell-based, human. Conditions: 2.0 μM peptide, 6 hours. The procedure:
as §1
For microarray analysis, cells at 75-80% confluence in T75 flasks were treated with equimolar (2.0 μM) concentrations of a peptide consisting of the sequence […] (SEQ ID NO 1). Mock-treated cells received same volume of solvent. After 6 hours the cells were washed twice with DPBS, trypsinized, suspended in 5 ml growth media and centrifuged (800 g for 10 minutes). Cells were resuspended in 5 ml DPBS and centrifuged again. Cell pellets were used for RNA isolation.
as §6
The nature of change of gene expression profile in response to the peptide consisting of the sequence […] (SEQ ID NO 1) was determined. Four result files were generated: 1. Molecular networks; 2. Biological functions and diseases; 3. Metabolic-, signalling-, and other molecular pathways; 4. Network node molecule lists. Fischer's exact test was used to calculate a p-value determining the probability that each biological function and/or disease assigned to that data set is due to chance alone.

The next test concerns Bleomycin hydrolase. Description: Microarray gene expression in peptide-treated TR146 cells: bleomycin hydrolase. Conditions: TR146 buccal mucosal cells, 2.0 μM peptide, 6 hours, vs mock-treated, Affymetrix Human Genome Focus Array. The test is classed as cell-based. Here is the method:
as §1, §9, §6, §10, §8

The test system of test [13] is glutamate receptor, ionotropic, N-methyl D-aspartate 2A. Description: Microarray gene expression in peptide-treated TR146 cells: NMDA 2A glutamate receptor. The test is classed as cell-based. The conditions noted are these: TR146 buccal mucosal cells, 2.0 μM peptide, 6 hours, vs mock-treated, Affymetrix Human Genome Focus Array. Here is the method: as §1, §9, §6, §10, §8

Entries after “also recorded” stand apart in the source; their conditions may differ. Where no end group is shown, it is not given here.

With “EPVLGPVR (listed as Ovis sp.) [SEQ ID NO 8, peptide homologous with positions 195-202 of casein beta]”, the “protein expression of leptin” value in the test with leptin is given as “upregulated”.

As for “EPVLGPVRGPFPI (listed as Ovis sp.) [SEQ ID NO 5, peptide homologous with positions 195 to 207 of casein beta]”, in test [1], the “gene expression of glutamate decarboxylase 2 (pancreatic islets, lung and brain, 65 kDa)” value is listed as “downregulated”. In test [2], the “gene expression of beta 2 gamma-aminobutyric acid receptor, theta” value is reported as “downregulated”. Moreover, in test [3], the “gene expression of gamma-aminobutyric acid A receptor (GABAAR)” value is “downregulated”. Besides, the “gene expression of rho 2” value in the test on rho 2 is on record as “downregulated”. Also, the “protein expression of leptin” value with leptin is “upregulated”.

As to “FVAPFPEVFGKEKV (listed as Ovis sp.) [SEQ ID NO 2, peptide homologous with positions 39 to 52 of casein alpha S-1]”, the “gene expression of renin (angiotensinogenase)” value in [4] was “down-regulated”. The “gene expression of resistin” value with Resistin is “down-regulated”. For the same sequence, the “protein expression of leptin” value in the test on leptin is “upregulated”. Besides, in test [5], the “body weight gain compared to control fed with HFD alone” value was “lower” and the body weight turned out to be 52.1 g.

As to “GPVRGPFPI (listed as Ovis sp.) [SEQ ID NO 4, peptide homologous with positions 199-207 of casein beta]”, the “protein expression of leptin” value with leptin is “upregulated”.

Take “RGPFPIIV (listed as Ovis sp.) [SEQ ID NO 9, peptide said to be homologous with positions 202-209 of casein alpha S-1]”: in test [5], the “body weight gain compared to control fed with HFD alone” value is “lower” and the body weight was 51.1 g.

Take “RMPLPPRGCPAAAPWS (listed as Ovis sp.) [SEQ ID NO 10]”: in the test with Stathmin-1, the “gene expression of Stathmin-1” value is reported as “upregulated”. In addition, the “gene expression of Amyloid Beta (A4) Precursor Protein (APP)” value in test [6] is “downregulated”. The “gene expression of protein-tyrosine phosphatase, receptor-type, F” value in test [7] is “downregulated”. In test [5], the “body weight gain compared to control fed with HFD alone” value is “lower” and the body weight is 50.1 g.

Regarding RPKHPIKHQGLPQEVLNENLLRF [SEQ ID NO 1], in [8], the “gene expression of glutamate receptor, metabotropic 8” value is given as “Downregulation; also recorded: down-regulated”. For the same sequence, the “gene expression of Apolipoprotein E (APOE) and receptors” value in test [9] is reported as “Downregulation; also recorded: down-regulated”. Also, the “gene expression of brain glutamate decarboxylase 2” value in test [10] is listed as “Downregulation; also recorded: down-regulated”. Also, in [11], the “gene expression of glutamate receptor, metabotropic 7” value is on record as “Downregulation; also recorded: down-regulated”. For the same sequence, in [12], the “number of genes down-regulated” value turned out to be 296 genes and the “number of genes up-regulated” value is on record as 101 genes. Further, the “number of genes with altered expression” value in test [12] (total altered) is around 400 genes. Also, in the test on leptin, the “protein expression of leptin” value is “upregulated”. Besides, the “gene expression of bleomycin hydrolase” value in the test with Bleomycin hydrolase is “Upregulation; also recorded: upregulated”. The “gene expression of glutamate receptor, ionotropic, N-methyl D-aspartate 2A” value in test [13] is “Downregulation; also recorded: down-regulated”.

As to “SDIPNPIGSENSEKTTMPLW (listed as Ovis sp.) [SEQ ID NO 3, peptide homologous with positions 195-214 of casein alpha S-1]”, the “protein expression of leptin” value in the test with leptin is listed as “upregulated”.

Turning to “SLSQSKVLPVPQKAVPYPQRDMPIQ (listed as Ovis sp.) [SEQ ID NO 7, peptide homologous with positions 164-188 of casein beta]”, the “protein expression of leptin” value in the test with leptin was “upregulated”.

On to “VPYPQRDMPIQ (listed as Ovis sp.) [SEQ ID NO 6, peptide homologous with positions 178-188 of casein beta]”, for which, in the test on leptin, the “protein expression of leptin” value was “upregulated”.
